Experimental data: patent US20240041991A1, “STABLE LIQUID DISPERSINB COMPOSITIONS” (KANE BIOTECH INC., priority 2020, published 2024)
Like-named read-outs stand apart in the source and are kept apart here. Marks after values point to notes of the source that are not given here.

Assays:
[1] = test system: DispersinB; assay type: biochemical, Aggregatibacter actinomycetemcomitans; conditions: 50 mM citrate buffer pH 5.9, 100 mM NaCl, levulinic acid % as in label, control = 100%
Experimental: DispersinB enzyme (100 μg/ml) solutions in 50 mM citrate buffer (pH 5.9), 100 mM NaCl containing Levulinic acid (0.25%-2%) were tested for DispersinB enzymatic activity following β-N-Acetylglucosaminidase assay.

[2] = test system: DispersinB; assay type: biochemical, Aggregatibacter actinomycetemcomitans; conditions: 50 mM citrate buffer pH 5.9; salt concentration as in label; control with no salts = 100%
From the text: Activity of the control sample with no salts was considered 100%.

[3] = test system: DispersinB; assay: Effect of buffer and pH on DispersinB enzymatic activity (β-N-Acetylglucosaminidase assay kit); assay type: biochemical, Aggregatibacter actinomycetemcomitans; conditions: buffer strength 100 mM, 100 mM NaCl, citrate pH 5.9 = 100%
Experimental: Lyophilized DispersinB powder was dissolved in selected buffers (citrate, phosphate) of defined pH (5.5 -7.5). The DispersinB concentration was adjusted to 100 μg/ml. Salt concentration was maintained at 100 mM sodium chloride. […] The enzymatic activity was presented as percentages in comparison to enzymatic activity of DispersinB in 100 mM Citrate buffer, 100 mM NaCl, pH 5.9, which was considered 100%.
Enzymatic activity in citrate buffer with a pH of 5.9 was considered 100%. * indicates statistically significant (p<0.05) values in paired two tailed t-test, each treatment was compared with enzymatic activity of DispersinB in corresponding buffer of pH 5.9.

[4] = test system: DispersinB; assay type: biochemical, Aggregatibacter actinomycetemcomitans; conditions: polyol % as in label
Experimental: Samples from each formula was incubated at 3 different temperatures (42° C., 52° C. and 62° C.) for 3 hours. Following a 3 hour incubation, the samples were brought to room temperature for enzymatic activity assay.
Two-tailed paired T-test was performed by to compare each polyol containing treatment with the treatment devoid of polyol. Treatment with probability values (p) less than 5% (0.05) was considered significant.

[5] = test system: DispersinB
Experimental: DispersinB enzyme (100 μg/ml) solutions in 50 mM citrate buffer and phosphate buffer (pH 5.9), with 100 mM NaCl containing EDTA (0.5%-10%) were tested for DispersinB enzymatic activity following β-N-Acetylglucosaminidase assay.

[6] = test system: DispersinB; conditions: pH 5.9; 50 mM Citrate; 100 mM NaCl pH 5.9 control = 100%
Experimental: DispersinB enzyme solutions (100 μg/ml) were prepared in 50 mM citrate buffer, containing 200 mM K2SO4. The pH was adjusted (5.4 to 5.9). DispersinB enzymatic activity was measured using β-N-Acetylglucosaminidase assay kit from Sigma (product code CS0780) in 96-well microtiter plate following the manufacturer's instructions. The data was represented as % enzymatic activity in comparison to enzyme activity of control sample that contained 100 μg/ml DispersinB in 50 mM citrate buffer (pH 5.9) containing 100 mM NaCl Activity of the control sample was considered 100%.

Compound: CC(=O)CCC(=O)O [Levulinic acid, 4-oxopentanoic acid]
- % enzymatic activity of DispersinB (Mean) ([1]; listed as 0.25% Levulinic acid): 103* %
- % enzymatic activity of DispersinB (Mean) ([1]; listed as 0.5% Levulinic acid): 102%
- % enzymatic activity of DispersinB (Mean) ([1]; listed as 1% Levulinic acid): 104%
- % enzymatic activity of DispersinB (Mean) ([1]; listed as 2% Levulinic acid): 104* %
- % enzymatic activity of DispersinB (Mean) ([1]; listed as 3% Levulinic acid): 109* %
- % enzymatic activity of DispersinB (Mean) ([1]; listed as 4% Levulinic acid): 109* %
- % enzymatic activity of DispersinB (Mean) ([1]; listed as 5% Levulinic acid): 114* %

Compound: [Cl-].[Cl-].[Mg+2] [100 mM MgCl2, MgCl2]
- % enzymatic activity of DispersinB (Mean) [2]: 81* %

Compound: Cl.N [100 mM NH4Cl, NH4Cl]
- % enzymatic activity of DispersinB (Mean) [2]: 129* %

Compound: O=C(O)CC(O)(CC(=O)O)C(=O)O [Citrate]
- % Enzyme activity ([3]; pH 5.5): 72* %
- % Enzyme activity ([3]; pH 5.9): 100%
- % Enzyme activity ([3]; pH 6): 76* %
- % Enzyme activity ([3]; pH 6.5): 53* %
- % Enzyme activity ([3]; pH 7): 35* %
- % Enzyme activity ([3]; pH 7.5): 21* %

Compound: O=S(=O)([O-])[O-].[Mg+2] [100 mM MgSO4, MgSO4]
- % enzymatic activity of DispersinB (Mean) [2]: 87%

Compound: Phosphate
- % Enzyme activity ([3]; pH 5.5): 80* %
- % Enzyme activity ([3]; pH 5.9): 100%
- % Enzyme activity ([3]; pH 6): 81* %
- % Enzyme activity ([3]; pH 6.5): 50* %
- % Enzyme activity ([3]; pH 7): 24* %
- % Enzyme activity ([3]; pH 7.5): 12* %

Compound: [Cl-].[Li+] [100 mM LiCl, LiCl]
- % enzymatic activity of DispersinB (Mean) [2]: 97%

Compound: O=S(=O)([O-])[O-].[Na+].[Na+] [100 mM Na2SO4, Na2SO4]
- % enzymatic activity of DispersinB (Mean) [2]: 174* %

Compound: OC[C@@H](O)[C@@H](O[C@H]1O[C@H](CO)[C@@H](O)[C@H](O)[C@H]1O)[C@H](O)[C@@H](O)CO [Maltitol, 4-O-α-D-Glucopyranosyl-D-glucitol]
- % enzymatic activity of DispersinB (Mean) ([4]; 4° C., freshly made control without polyol = 100%, listed as 1% Maltitol): 102%
- % enzymatic activity of DispersinB (Mean) ([4]; 4° C., freshly made control without polyol = 100%, listed as 2.5% Maltitol): 99%
- % enzymatic activity of DispersinB (Mean) ([4]; 4° C., freshly made control without polyol = 100%, listed as 5% Maltitol): 95%
- % enzymatic activity of DispersinB (Mean) ([4]; 4° C., freshly made control without polyol = 100%, listed as 10% Maltitol): 138* %
- % enzymatic activity of DispersinB (Mean) ([4]; 4° C., freshly made control without polyol = 100%, listed as 15% Maltitol): 104%
- % enzymatic activity of DispersinB (Mean) ([4]; 4° C., freshly made control without polyol = 100%, listed as 20% Maltitol): 107%
- % enzymatic activity of DispersinB (Mean) ([4]; 4° C., freshly made control without polyol = 100%, listed as 25% Maltitol): 102%
- % enzymatic activity of DispersinB (Mean) ([4]; 42° C. for 3 hours, control without polyol = 100%, listed as 1% Maltitol): 106* %
- % enzymatic activity of DispersinB (Mean) ([4]; 42° C. for 3 hours, control without polyol = 100%, listed as 2.5% Maltitol): 110* %
- % enzymatic activity of DispersinB (Mean) ([4]; 42° C. for 3 hours, control without polyol = 100%, listed as 5% Maltitol): 107* %
- % enzymatic activity of DispersinB (Mean) ([4]; 42° C. for 3 hours, control without polyol = 100%, listed as 10% Maltitol): 143* %
- % enzymatic activity of DispersinB (Mean) ([4]; 42° C. for 3 hours, control without polyol = 100%, listed as 15% Maltitol): 110* %
- % enzymatic activity of DispersinB (Mean) ([4]; 42° C. for 3 hours, control without polyol = 100%, listed as 20% Maltitol): 116* %
- % enzymatic activity of DispersinB (Mean) ([4]; 42° C. for 3 hours, control without polyol = 100%, listed as 25% Maltitol): 129* %
- % enzymatic activity of DispersinB (Mean) ([4]; 52° C. for 3 hours, control without polyol = 100%, listed as 1% Maltitol): 17* %
- % enzymatic activity of DispersinB (Mean) ([4]; 52° C. for 3 hours, control without polyol = 100%, listed as 2.5% Maltitol): 24* %
- % enzymatic activity of DispersinB (Mean) ([4]; 52° C. for 3 hours, control without polyol = 100%, listed as 5% Maltitol): 37* %
- % enzymatic activity of DispersinB (Mean) ([4]; 52° C. for 3 hours, control without polyol = 100%, listed as 10% Maltitol): 111* %
- % enzymatic activity of DispersinB (Mean) ([4]; 52° C. for 3 hours, control without polyol = 100%, listed as 15% Maltitol): 102* %
- % enzymatic activity of DispersinB (Mean) ([4]; 52° C. for 3 hours, control without polyol = 100%, listed as 20% Maltitol): 113* %
- % enzymatic activity of DispersinB (Mean) ([4]; 52° C. for 3 hours, control without polyol = 100%, listed as 25% Maltitol): 120* %
- % enzymatic activity of DispersinB (Mean) ([4]; 62° C. for 3 hours, control without polyol = 100%, listed as 1% Maltitol): 0%
- % enzymatic activity of DispersinB (Mean) ([4]; 62° C. for 3 hours, control without polyol = 100%, listed as 2.5% Maltitol): 0%
- % enzymatic activity of DispersinB (Mean) ([4]; 62° C. for 3 hours, control without polyol = 100%, listed as 5% Maltitol): 0%
- % enzymatic activity of DispersinB (Mean) ([4]; 62° C. for 3 hours, control without polyol = 100%, listed as 10% Maltitol): 6* %
- % enzymatic activity of DispersinB (Mean) ([4]; 62° C. for 3 hours, control without polyol = 100%, listed as 15% Maltitol): 8* %
- % enzymatic activity of DispersinB (Mean) ([4]; 62° C. for 3 hours, control without polyol = 100%, listed as 20% Maltitol): 7* %
- % enzymatic activity of DispersinB (Mean) ([4]; 62° C. for 3 hours, control without polyol = 100%, listed as 25% Maltitol): 5* %

Compound: N.N.O=S(=O)(O)O [100 mM (NH4)2SO4, (NH4)2SO4]
- % enzymatic activity of DispersinB (Mean) [2]: 91%

Compound: O=C(O)CN(CCN(CC(=O)O)CC(=O)O)CC(=O)O [EDTA, Ethylenediaminetetraacetic acid]
- % Activity ([5]; Citrate buffer pH 5.9, 100 mM NaCl, EDTA 0 mg/ml): 100.00%
- % Activity ([5]; Citrate buffer pH 5.9, 100 mM NaCl, EDTA 0.5 mg/ml): 101.45%
- % Activity ([5]; Citrate buffer pH 5.9, 100 mM NaCl, EDTA 1 mg/ml): 95.86%
- % Activity ([5]; Citrate buffer pH 5.9, 100 mM NaCl, EDTA 2.5 mg/ml): 104.19%
- % Activity ([5]; Citrate buffer pH 5.9, 100 mM NaCl, EDTA 9.4 mg/ml): 83.18%
- % Activity ([5]; Phosphate buffer pH 5.9, 100 mM NaCl, EDTA 0 mg/ml): 100.00%
- % Activity ([5]; Phosphate buffer pH 5.9, 100 mM NaCl, EDTA 0.5 mg/ml): 102.52%
- % Activity ([5]; Phosphate buffer pH 5.9, 100 mM NaCl, EDTA 1 mg/ml): 99.78%
- % Activity ([5]; Phosphate buffer pH 5.9, 100 mM NaCl, EDTA 2.5 mg/ml): 91.13%
- % Activity ([5]; Phosphate buffer pH 5.9, 100 mM NaCl, EDTA 9.4 mg/ml): 66.51%
- concentrations of EDTA that tend to reduce the enzyme activity ([5]; citrate buffer): greater than 2.5 mg/ml
- concentrations of EDTA that tend to reduce the enzyme activity ([5]; phosphate buffer): greater than 1 mg/ml

Compound: [Cl-].[Na+] [100 mM NaCl, NaCl]
- % Activity [6]: 100.00^b %
- % enzymatic activity of DispersinB (Mean) [2]: 179* %

Compound: [Cl-].[K+] [100 mM KCl, KCl]
- % enzymatic activity of DispersinB (Mean) [2]: 152* %

Compound: O=[N+]([O-])[O-].[K+] [100 mM KNO3, KNO3]
- % enzymatic activity of DispersinB (Mean) [2]: 135* %

Compound: CC(=O)O.N [100 mM NH4 CH2COO, NH4 CH2COO]
- % enzymatic activity of DispersinB (Mean) [2]: 66* %
